Reference: patent publication US9617237B2, “Partially saturated tricyclic compounds and methods of making and using same” (Zafgen, Inc., priority 2011, dated 2017)
Counter-ions that a name gives are not always drawn.

Target: T1, recombinant human MetAP2 (Homo sapiens, UniProt P50579)
T1 construct: made in house; host or cells: Sf9 insect cells
Assay: Inhibition of recombinant human MetAP2 activity (fluorescence, MAS substrate, amino acid oxidase/Amplex red)
Type: biochemical
Settings: manganese enzyme; 0.75 mM Methionine-Alanine-Serine (MAS) substrate; 30 minutes at 25° C.; pH 7.5; 1% DMSO
Method: Compounds are tested for their capacity to inhibit recombinant human MetAP2 activity using the following assay.
Human recombinant MetAP2 expressed in Sf9 cells followed by affinity purification and EDTA treatment to remove endogenous active site cation was dialysed against MnCl2 to produce the manganese enzyme used in the assay. The assay was carried out for 30 minutes at 25° C. in 50 mM HEPES buffer containing 100 mM NaCl, pH 7.5 the presence of 0.75 mM Methionine-Alanine-Serine (MAS) substrate and 50 μg/ml amino acid oxidase using a dilution of purified MetAP2 giving >3-fold signal: noise. Cleavage of the substrate by MetAP2 and oxidation of free methionine by amino acid oxidase was detected and quantified using fluorescence generated by Amplex red (10-acetyl-3,7-dihydroxyphenoxazine) in combination with horseradish peroxidase which detects H2O2 released during the oxidation step. The fluorescent signal was detected using a multiwell fluorimeter. Compounds were diluted in DMSO prior to addition to assay buffer, the final DMSO concentration in the assay being 1%.
IC50 values are calculated using the XLfit software package (version 2.0.5).

T1 sequence (P50579 whole entry): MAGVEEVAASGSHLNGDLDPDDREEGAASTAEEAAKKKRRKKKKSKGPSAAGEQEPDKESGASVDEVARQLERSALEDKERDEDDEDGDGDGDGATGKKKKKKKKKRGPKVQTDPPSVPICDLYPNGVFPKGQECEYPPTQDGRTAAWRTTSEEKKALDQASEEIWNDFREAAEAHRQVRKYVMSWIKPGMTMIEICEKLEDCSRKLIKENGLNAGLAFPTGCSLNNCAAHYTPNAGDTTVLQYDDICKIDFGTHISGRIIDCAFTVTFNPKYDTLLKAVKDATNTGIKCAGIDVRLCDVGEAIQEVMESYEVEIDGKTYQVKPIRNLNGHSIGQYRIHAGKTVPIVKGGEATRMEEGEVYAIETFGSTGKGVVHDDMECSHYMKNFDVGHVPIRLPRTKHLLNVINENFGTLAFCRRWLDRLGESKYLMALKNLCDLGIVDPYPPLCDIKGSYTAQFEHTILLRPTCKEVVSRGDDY

| Compound | IC50 |
| --- | --- |
| O=C(O)c1c(NS(=O)(=O)c2ccc(F)cc2/C=C\CN2CCCC2)ccc2c1OC[C@@H]1C[C@H]21 (racemic) [(1aRS,7bSR)-5-{2[(Z)-3-(Pyrrolidin-1-yl)prop-1-enyl]-4-fluorobenzenesulfonylamino}-1,1a,2,7b-tetrahydro-cyclopropa[c]chromene-4-carboxylic acid] | < 50 nM |
| O=C(O)c1c(NS(=O)(=O)c2ccccc2)ccc2c1OC[C@H]1OCC[C@@H]21 (racemic) [Cis-(3aRS,9bRS)-7-(Benzenesulfonylamino)-1,3a,4,9b-tetrahydro-2H-furo[2,3-c]chromene-6-carboxylic acid] | 50 to 500 nM |
| O=C(O)c1c(NS(=O)(=O)c2ccc(F)cc2CCCN2CCCC2)ccc2c1OC[C@H]1OCC[C@@H]21 (racemic) [Cis-(3aRS,9bRS)-7-[2-(3-{Pyrrolidin-1-yl}propyl)-4-fluorobenzene-sulfonylamino]-1,3a,4,9b-tetrahydro-2H-furo[2,3-c]chromene-6-carboxylic acid] | < 50 nM |
| CCN(CC)C/C=C\c1cc(F)ccc1S(=O)(=O)Nc1ccc2c(c1C(=O)O)OC[C@H]1OCC[C@@H]21 (racemic) [Cis-(3aRS,9bRS)-7-[2-((Z)-3-Diethylaminoprop-1-enyl)-4-fluoro-benzenesulfonylamino]-1,3a,4,9b-tetrahydro-2H-furo[2,3-c]chromene-6-carboxylic acid] | < 50 nM |
| CCNC/C=C\c1cc(F)ccc1S(=O)(=O)Nc1ccc2c(c1C(=O)O)OC[C@@H]1C[C@H]21 (single isomer, unassigned) [(1aRS,7bSR)-5-[2((Z)-3-ethylaminoprop-1-enyl)-4-fluorobenzenesulfonylamino]-1,1a,2,7b-tetrahydrocyclopropa[c]chromene-4-carboxylic acid] | < 50 nM |
| CCN(CC)CC/C=C\c1cc(F)ccc1S(=O)(=O)Nc1ccc2c(c1C(=O)O)OCC1CC21 (single isomer, unassigned) [(1aRS,7bSR)-5-[2((Z)-4-diethylaminobut-1-enyl)-4-fluorobenzenesulfonyl-amino]-1,1a,2,7b-tetrahydrocyclopropa[c]chromene-4-carboxylic acid] | 50 to 500 nM |
| CCN(CC)C/C=C\c1cc(F)ccc1S(=O)(=O)Nc1ccc2c(c1C(=O)O)OCC1CC21 (centres unmarked) [5-[2-((Z)-3-Diethylaminoprop-1-enyl)-4-fluorobenzenesulfonyl-amino]-1,1a,2,7b-tetrahydrocyclopropa[c]chromene-4-carboxylic acid] | < 50 nM |
| CCN(CC)C/C=C\c1cc(F)ccc1S(=O)(=O)Nc1ccc2c(c1C(=O)O)OC[C@@H]1C[C@H]21 [(1aR,7bS) 5-[2-((Z)-3-Diethylaminoprop-1-enyl)-4-fluorobenzenesulfonyl-amino]-1,1a,2,7b-tetrahydrocyclopropa[c]chromene-4-carboxylic acid] | < 50 nM |
| CCN(CC)CCCc1cc(F)ccc1S(=O)(=O)Nc1ccc2c(c1C(=O)O)OC[C@@H]1C[C@H]21 [(1aR,7bS)-5-[2-(3-Diethylaminopropyl)-4-fluorobenzenesulfonyl-amino]-1,1a,2,7b-tetrahydrocyclopropa[c]chromene-4-carboxylic acid] | < 50 nM |
| O=C(O)c1c(NS(=O)(=O)c2ccc(F)cc2/C=C\CNN2CC[C@H](O)C2)ccc2c1OC[C@@H]1C[C@H]21 [(1aRS,7bSR)-5-{2[(Z)-3-((S)-3-hydroxypyrrolidin-1-y)aminoprop-1-enyl]-4-fluorobenzenesulfonylamino}-1,1a,2,7b-tetrahydrocyclopropa[c]chromene-4-carboxylic acid] | 50 to 500 nM |
| O=C(O)c1c(NS(=O)(=O)c2ccc(F)cc2CCCN2CCC2)ccc2c1OCC1CC21 (stereo not drawn) [(1aRS,7bSR)-5-{2[(Z)-3-(Azetidin-1-yl)propyl]-4-fluorobenzenesulfonylamino}-1,1a,2,7b-tetrahydrocyclopropa[c]chromene-4-carboxylic acid] | 50 to 500 nM |
| CCN(CC)C/C=C\c1cc(F)ccc1S(=O)(=O)Nc1ccc2c(c1C(=O)O)OC[C@H]1C[C@@H]21 [(1aS,7bR) 5-[2-((Z)-3-Diethylaminoprop-1-enyl)-4-fluorobenzenesulfonyl-amino]-1,1a,2,7b-tetrahydrocyclopropa[c]chromene-4-carboxylic acid] | 50 to 500 nM |
| (1aRS,7bSR)-5-{2[(Z)-3-((R)-3-Hydroxypyrrolidin-1-yl)aminoprop-1-enyl]-4-fluorobenzene-sulfonylamino}-1,1a,2,7b-tetrahydro-cyclopropa[c]chromene-4-carboxylic acid | 50 to 500 nM |

Second part, the compound after the results:

| IC50 | Compound |
| --- | --- |
| 50 to 500 nM | CCN(CC)CCCc1cc(F)ccc1S(=O)(=O)Nc1ccc2c(c1C(=O)O)OC[C@H]1OCC[C@@H]21 (racemic) [Cis-(3aRS,9bRS)-7-[2-(3-Diethylaminopropyl)-4-fluorobenzenesulfonyl-amino]-1,3a,4,9b-tetrahydro-2H-furo[2,3-c]chromene-6-carboxylic acid] |
| 50 to 500 nM | CN(C)CCCCNc1ccccc1S(=O)(=O)Nc1ccc2c(c1C(=O)O)OC[C@H]1OCC[C@@H]21 (racemic) [Cis-(3aRS,9bRS)-7-[2-(4-dimethylamino-butylamino)-benzenesulfonylamino]-1,3a,4,9b-tetrahydro-2H-furo[2,3-c]chromene-6-carboxylic acid] |
| < 50 nM | CCN(CC)C/C=C\c1cc(F)ccc1S(=O)(=O)Nc1ccc2c(c1C(=O)O)NC[C@H]1OCC[C@@H]21 (racemic) [Cis-(3aRS,9bRS)-7-[2-((Z)-3-Diethylaminoprop-1-enyl)-4-fluorobenzenesulfonylamino]-1,2,3a,4,5,9b-hexahydrofuro[2,3-c]quinoline-6-carboxylic acid] |
| < 50 nM | CCN1CC[C@@H](Cc2cc(F)ccc2S(=O)(=O)Nc2ccc3c(c2C(=O)O)OC[C@@H]2C[C@H]32)C1 (single isomer, unassigned) |
| 50 to 500 nM | O=C(O)c1c(NS(=O)(=O)c2ccc(F)cc2/C=C\CN2CCCC2)ccc2c1OC[C@@H]1C[C@H]21 (single isomer, unassigned) [(1aRS,7bSR)-5-{2[(Z)-3-(pyrrolidin-1-yl)prop-1-enyl]-4-fluorobenzenesulfonylamino}-1,1a,2,7b-tetrahydro-cyclopropa[c]chromene-4-carboxylic acid] |
| < 50 nM | O=C(O)c1c(NS(=O)(=O)c2ccccc2)ccc2c3c(cnc12)OCC3 [7-(Benzenesulfonylamino))-1,2-dihydrofuro[2,3-c]quinoline-6-carboxylic acid formate salt] |
| < 50 nM | CCN(CC)C/C=C\c1cc(F)ccc1S(=O)(=O)Nc1ccc2c3c(cnc2c1C(=O)O)OCC3 [7-[2-((Z)-3-Diethylaminoprop-1-enyl)-4-fluorobenzenesulfonyl-amino]-1,2-dihydrofuro[2,3-c]quinoline-6-carboxylic acid formate salt] |
| 50 to 500 nM | CCN1CCCC(Cc2cc(F)ccc2S(=O)(=O)Nc2ccc3c(c2C(=O)O)OC[C@@H]2C[C@H]32)C1 (stereo partly drawn) [(1aR,7bS)-5-[2-(1-Ethylpiperidin-3-ylmethyl)-4-fluorobenzene-sulfonylamino]-1,1a,2,7b-tetrahydrocyclopropa[c]chromene-4-carboxylic acid] |
| 50 to 500 nM | CCN1CC[C@@H](OCc2cc(F)ccc2S(=O)(=O)Nc2ccc3c(c2C(=O)O)OC[C@@H]2C[C@H]32)C1 [(1aR,7bS)-5-[2-((R)-1-Ethylpyrrolidin-3-yloxymethyl)-4-fluoro-benzenesulfonylamino]-1,1a,2,7b-tetrahydrocyclopropa-[c]chromene-4-carboxylic acid] |
| 50 to 500 nM | CCN1CC[C@H](OCc2cc(F)ccc2S(=O)(=O)Nc2ccc3c(c2C(=O)O)OC[C@@H]2C[C@H]32)C1 [(1aR,7bS)-5-[2-((S)-1-Ethylpyrrolidin-3-yloxymethyl)-4-fluoro-benzenesulfonylamino]-1,1a,2,7b-tetrahydrocyclopropa-[c]chromene-4-carboxylic acid] |
| 50 to 500 nM | CCN1CCC[C@H]1CCc1cc(F)ccc1S(=O)(=O)Nc1ccc2c(c1C(=O)O)OC[C@@H]1C[C@H]21 [(1aR,7bS)-5-{2-[2-((R)-1-Ethylpyrrolidin-2-yl)ethyl]-4-fluorobenzenesulfonyl-amino}-1,1a,2,7b-tetrahydrocyclopropa-[c]chromene-4-carboxylic acid] |
| 50 to 500 nM | CCN(CC)CCCCc1cc(F)ccc1S(=O)(=O)Nc1ccc2c(c1C(=O)O)OCC1CC21 (stereo not drawn) [(1aRS,7bSR)-5-[2((Z)-4-Diethylaminobutyl)-4-fluorobenzenesulfonylamino]-1,1a,2,7b-tetrahydrocyclopropa[c]chromene-4-carboxylic acid] |
| < 50 nM | CCN(CC)CCCNc1ccccc1S(=O)(=O)Nc1ccc2c(c1C(=O)O)OCC1CC21 (stereo not drawn) [(1aRS,7bSR)-5-[2-(3-N,N,-Diethylaminopropylamino)benzene-sulfonylamino]-1,1a,2,7b-tetrahydrocyclopropa[c]chromene-4-carboxylic acid] |
